Laboratory results taken from the NIST ThermoML archive (doi:10.1016/j.jct.2018.11.013).
± gives the expanded uncertainty stated by the source.

Test: Boiling temperature at pressure P
Conditions: 101.3 kPa; Liquid; Ebulliometric method (Recirculating still)

Boiling temperature at pressure P [°C]	Structure (SMILES)
135.04 ± 0.71	CCOCCO [2-ethoxyethan-1-ol]
82.12 ± 0.71	CC(C)O [propan-2-ol]
68.62 ± 0.71	CC(C)OC(C)C [diisopropyl ether]

Structure (SMILES)	Boiling temperature at pressure P [°C]
CCCCOC(C)=O [butyl ethanoate]	126.11 ± 0.71
